This is an account of results in patent publication US9388175B2, “2-aniline-4-aryl substituted thiazole derivatives” (Janssen Pharmaceutica N.V., priority 2005, dated 2016).

T1 sequence (P36544 23-502): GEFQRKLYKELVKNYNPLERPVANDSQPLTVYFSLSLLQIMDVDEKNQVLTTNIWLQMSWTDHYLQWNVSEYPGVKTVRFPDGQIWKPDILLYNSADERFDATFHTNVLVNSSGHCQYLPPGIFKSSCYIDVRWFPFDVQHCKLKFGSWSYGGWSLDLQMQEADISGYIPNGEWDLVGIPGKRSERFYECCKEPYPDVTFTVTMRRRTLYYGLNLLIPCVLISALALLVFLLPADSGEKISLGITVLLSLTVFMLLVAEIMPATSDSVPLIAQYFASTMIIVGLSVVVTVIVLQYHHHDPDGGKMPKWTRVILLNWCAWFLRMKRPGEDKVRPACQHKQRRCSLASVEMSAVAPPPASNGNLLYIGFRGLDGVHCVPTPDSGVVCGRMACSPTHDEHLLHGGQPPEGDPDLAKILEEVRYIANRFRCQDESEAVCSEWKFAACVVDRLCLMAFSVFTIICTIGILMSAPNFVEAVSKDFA

The assay has as its target T1, hα7-wt nAChR stably expressed in the GH4C1 cell line (Homo sapiens, UniProt P36544).
T1 construct: expressed in transfected cells
In words: Ca2+ flux imaging (FLIPR) of PAM activity with choline as agonist. The following applies: efficacy relative to 100 μM choline alone (defined as 1); peak fluorescence, fluo-4AM; compounds tested 0.1 μM to 30 μM, efficacy criterion at 10 μM. The class given is cell-based. From the text:
Stable expression in mammalian cells in general and rat GH4C1 cells in particular, of cDNA clones encoding the human α7 wild-type sequence (hα7-wt nAChR) and in which the coding region is placed downstream of a promoter results in the appearance of functional α7 nAChRs on the surface of the mammalian cells. This technique has provided a powerful means of assessing the function of α7 wild-type protein. Given the fact that the cation permeability of the α7 nicotinic receptor preferentially favours calcium, fluorescent imaging of Ca^2+ flux through the hα7-wt nAChR stably expressed in the GH4C1 cell line was used as a first means of assaying modulator activity of the compounds of the present invention.
a) Assay Buffer • Hanks buffered saline solution (HBSS, Invitrogen, Belgium), supplemented with 10 mM HEPES (Invitrogen, Belgium), CaCl2 to a final concentration of 5 mM, 0.1% Bovine serum albumin (Sigma-Aldrich NV, Belgium), 2.5 mM probenecid (Sigma-Aldrich NV, Belgium).
b) Calcium-Sensitive Dye—Fluo-4AM • Fluo-4AM (Molecular Probes, USA) was dissolved in DMSO containing 10% Pluronic acid (Molecular Probes, USA) to give a stock solution which was aliquoted and could be stored at −20° C. until later use. On the day of the experiment Fluo-4AM stock was defrosted and diluted in DMEM/F12 (Invitrogen, Belgium) containing 2.5 mM probenicid and 0.1% BSA to give a final concentration of 2 μM.
c) 96-well Plates • BD Biocoat poly-D-lysine 96-well black/clear bottom plates (BD Biosciences, Belgium)
d) Calcium Flux Measurement • A Fluorimetric Imaging Plate Reader (FLIPR, Molecular Devices Corporation, Sunnyvale, USA) was used to measure intracellular free-calcium flux signals
Monolayers of hα7-wt nAChR-expressing cells were grown in multi-well plates, in particular black-sided, transparent bottomed 96 well plates coated with poly-D-lysine for 24 hours prior to loading with a fluorescent calcium indicator, in a particular embodiment loading with fluo-3 or fluo-4AM for up to 90 minutes, in an even more particular embodiment loading with fluo-4AM for up to 90 minutes, and in a preferred embodiment loading with fluo-4AM for 60 minutes.
In a particular embodiment, the α7 nicotinic receptor agonist was choline, a more particular embodiment choline applied at a sub-maximal concentration of 100 μM.
A control response to choline was calculated on each plate from the difference in peak fluorescence in wells receiving either choline or assay buffer alone. Compounds of the present invention were tested at a concentration range from 0.1 μM to 30 μM.
The activity ranges are defined as follows; A denotes an activity range from 1.1 till 1.5, B denotes an activity range from 1.5 till 2.0, C denotes an activity range from 2.0 till 3.0, D denotes an activity range from 3.0 till 4.5 and E denotes an efficacy from at least 4.5.
As to `O=C(Cc1sc(Nc2cc(Cl)ccc2Cl)nc1-c1ccncc1)N1CCCC1` [Compound 162], the “Activity Range” value was “E (E denotes an efficacy from at least 4.5)”.

In the case of `Cc1ccc(-c2nc(Nc3cccc(C(F)(F)F)c3)sc2CO)cn1` [Compound 129], the “Activity Range” value is listed as “E (E denotes an efficacy from at least 4.5)”.

As for `FC(F)(F)c1cncc(Nc2nc(-c3cnc4ccccn34)cs2)c1` [Compound 47], the “Activity Range” value was “C (C denotes an activity range from 2.0 till 3.0)”.

For the molecule `COc1cc(OC)c(Nc2nc(-c3ccncc3)c(CC(=O)N3CCCC3)s2)cc1Cl` [Compound 135], the “Activity Range” value is recorded as “E (E denotes an efficacy from at least 4.5)”.

In the case of `COc1cc(OC)c(Nc2nc(-c3ccncc3)c(CO)s2)cc1Cl` [int. 25], the “Activity Range” value is listed as “C (C denotes an activity range from 2.0 till 3.0)”.

In the case of `CNC(=O)Cc1sc(Nc2cc(Cl)c(OC)cc2OC)nc1-c1ccc(F)c(F)c1` [Compound 134], the “Activity Range” value is given as “E (E denotes an efficacy from at least 4.5)”.

Regarding `CCOC(=O)c1sc(Nc2cc(Cl)ccc2Cl)nc1C(F)F` [Compound 153], the “Activity Range” value was “E (E denotes an efficacy from at least 4.5)”.

For the molecule `Fc1ccc(Nc2nc(-c3cccnc3)c(Br)s2)cc1C(F)(F)F` [Compound 84], the “Activity Range” value is on record as “C (C denotes an activity range from 2.0 till 3.0)”.

For the molecule `CCOC(=O)c1sc(Nc2cc(Cl)ccc2Cl)nc1C1CC1` [Compound 152], the “Activity Range” value is given as “E (E denotes an efficacy from at least 4.5)”.

As for `c1ccn2c(-c3csc(Nc4ccc5c(c4)CCO5)n3)cnc2c1` [Compound 46], the “Activity Range” value is “C (C denotes an activity range from 2.0 till 3.0)”.

On to `Cc1ccc(Nc2nc(-c3cccnc3)c(C)s2)cc1` [Compound 138], for which the “Activity Range” value was “E (E denotes an efficacy from at least 4.5)”.

In the case of `Fc1cccc(-c2nc(Nc3cccc(C(F)(F)F)c3)sc2F)c1` [Compound 7], the “Activity Range” value is given as “C (C denotes an activity range from 2.0 till 3.0)”.

As to `COc1ccc(Nc2nc(-c3cnc4ccccn34)cs2)cc1OC` [Compound 55], the “Activity Range” value is “B (B denotes an activity range from 1.5 till 2.0)”.

As for `CCCc1nc(Nc2cc(Cl)ccc2Cl)sc1C(=O)OCC` [Compound 156], the “Activity Range” value is “E (E denotes an efficacy from at least 4.5)”.

With `COc1cc(OC)c(Nc2nc(-c3ccncc3)c(CN3CCOCC3)s2)cc1Cl` [Compound 100], the “Activity Range” value is “D (D denotes an activity range from 3.0 till 4.5)”.

With `Clc1cccc(Nc2nc(-c3cnc4sccn34)cs2)c1` [Compound 61], the “Activity Range” value is reported as “C (C denotes an activity range from 2.0 till 3.0)”.

Regarding `Brc1ccc(Nc2nc(-c3cccnc3)cs2)cn1` [Compound 64], the “Activity Range” value is listed as “D (D denotes an activity range from 3.0 till 4.5)”.

As for `Fc1cccc(-c2csc(Nc3ccc(F)c(C(F)(F)F)c3)n2)c1` [Compound 79], the “Activity Range” value is “B (B denotes an activity range from 1.5 till 2.0)”.

Consider `OCc1sc(Nc2ccc(Cl)cc2Cl)nc1-c1ccccc1` [Compound 3], for which the “Activity Range” value is reported as “D (D denotes an activity range from 3.0 till 4.5)”.

In the case of `N#Cc1ccc(Nc2nc(-c3cnc4ccccn34)cs2)cc1` [Compound 69], the “Activity Range” value is on record as “D (D denotes an activity range from 3.0 till 4.5)”.

On to `COc1ccc(Nc2nc(-c3cc(Cl)c(OC)cc3OC)c(CO)s2)c(OC)c1` [Compound 126], for which the “Activity Range” value is “E (E denotes an efficacy from at least 4.5)”.

`CNC(=O)Cc1sc(Nc2cccc(C(F)(F)F)c2)nc1-c1ccccc1` [Compound 131]: the “Activity Range” value was “E (E denotes an efficacy from at least 4.5)”.

As to `CC(=O)NCc1sc(Nc2cccc(C(F)(F)F)c2)nc1-c1cccnc1` [Compound 4, N-[4-Pyridin-3-yl-2-(3-trifluoromethyl-phenylamino)-thiazol-5-ylmethyl]-acetamide], the “Activity Range” value is reported as “D (D denotes an activity range from 3.0 till 4.5)”.

Regarding `Cc1cc(C(=O)NCc2sc(Nc3cccc(C(F)(F)F)c3)nc2-c2cccnc2)no1` [Compound 108, 5-methyl-N-[[4-(3-pyridinyl)-2-[[3-(trifluoromethyl)phenyl]amino]-5-thiazolyl]methyl]-3-isoxazolecarboxamide], the “Activity Range” value is reported as “E (E denotes an efficacy from at least 4.5)”.

Consider `c1cn2c(-c3csc(Nc4ccc5c(c4)CCO5)n3)cnc2s1` [Compound 60], for which the “Activity Range” value is reported as “B (B denotes an activity range from 1.5 till 2.0)”.

As for `CC(C)c1nc(Nc2cccc(C(F)(F)F)c2)sc1CO` [Compound 116], the “Activity Range” value was “E (E denotes an efficacy from at least 4.5)”.

On to `COCCc1nc(Nc2cc(Cl)ccc2Cl)sc1C(=O)OC` [Compound 157], for which the “Activity Range” value is given as “E (E denotes an efficacy from at least 4.5)”.

In the case of `COc1ccc(-c2csc(Nc3ccc(Cl)cc3Cl)n2)c(OC)c1` [Compound 41], the “Activity Range” value is “A (A denotes an activity range from 1.1 till 1.5)”.

In the case of `COc1ccc(-c2csc(Nc3cccc(Cl)c3Cl)n2)c(OC)c1` [Compound 8], the “Activity Range” value was “C (C denotes an activity range from 2.0 till 3.0)”.

For `COc1ccc(Nc2nc(C(F)(F)F)c(CO)s2)cc1` [Compound 118], the “Activity Range” value is “E (E denotes an efficacy from at least 4.5)”.

On to `Cc1cccc(Nc2nc(-c3cnc4ccccn34)cs2)c1` [Compound 51], for which the “Activity Range” value was “C (C denotes an activity range from 2.0 till 3.0)”.

Regarding `Cc1ccccc1Nc1nc(-c2ccccc2)c(C(=O)Nc2cccnc2)s1` [Compound 172, 5-Thiazolecarboxamide, 2-[(2-methylphenyl)amino]-4-phenyl-N-3-pyridinyl-], the “Activity Range” value is “E (E denotes an efficacy from at least 4.5)”.

With `CCOC(=O)c1sc(Nc2ccc(OC)cc2)nc1C(F)(F)F` [Compound 154], the “Activity Range” value was “E (E denotes an efficacy from at least 4.5)”.

Regarding `CC(C)NC(=O)Cc1sc(Nc2cc(Cl)ccc2Cl)nc1-c1ccncc1` [Compound 161, 2-[(2,5-dichlorophenyl)amino]-N-(1-methylethyl)-4-(4-pyridinyl)-5-thiazoleacetamide], the “Activity Range” value is listed as “E (E denotes an efficacy from at least 4.5)”.

Regarding `COc1ccc(Nc2nc(-c3ccccc3)c(CO)s2)cc1` [Compound 127], the “Activity Range” value is recorded as “E (E denotes an efficacy from at least 4.5)”.

Regarding `Clc1ccc(Nc2nc(-c3ccccc3Cl)cs2)c(Cl)c1` [Compound 37], the “Activity Range” value is “C (C denotes an activity range from 2.0 till 3.0)”.

On to `CNC(=O)Cc1sc(Nc2cc(Cl)c(OC)cc2OC)nc1-c1ccc2c(c1)OCCO2` [Compound 97, 2-[(5-chloro-2,4-dimethoxyphenyl)amino]-4-(2,3-dihydro-1,4-benzodioxin-6-yl)-N-methyl-5-thiazoleacetamide], for which the “Activity Range” value is “E (E denotes an efficacy from at least 4.5)”.

As to `COc1ccc(Nc2nc(-c3cnc4ccccn34)cs2)c(OC)c1` [Compound 50], the “Activity Range” value is reported as “D (D denotes an activity range from 3.0 till 4.5)”.

`COc1ccc(Nc2nc(-c3cnc4ccccn34)cs2)cc1` [Compound 70]: the “Activity Range” value was “D (D denotes an activity range from 3.0 till 4.5)”.

With `Cc1cccc(Nc2nc(-c3cnc4sccn34)cs2)c1` [Compound 59], the “Activity Range” value was “B (B denotes an activity range from 1.5 till 2.0)”.

For the molecule `COc1ccc(OC)c(-c2csc(Nc3ccccc3Cl)n2)c1` [Compound 43], the “Activity Range” value is reported as “B (B denotes an activity range from 1.5 till 2.0)”.

Take `CCOC(=O)c1sc(Nc2ccc(OC)cc2)nc1C1CC1` [Compound 146]: the “Activity Range” value is “E (E denotes an efficacy from at least 4.5)”.

On to `Cc1sc(Nc2ccc(C(F)(F)F)cc2)nc1-c1cnc2ccccn12` [Compound 85], for which the “Activity Range” value was “C (C denotes an activity range from 2.0 till 3.0)”.

For `Fc1cccc(-c2nc(Nc3cccc(C(F)(F)F)c3)sc2Br)c1` [Compound 6], the “Activity Range” value is recorded as “C (C denotes an activity range from 2.0 till 3.0)”.

On to `FC(F)(F)c1cccc(Nc2nc(-c3cncnc3)cs2)c1` [Compound 73], for which the “Activity Range” value was “C (C denotes an activity range from 2.0 till 3.0)”.

With `COCCc1nc(Nc2cccc(C(F)(F)F)c2)sc1C(=O)OC` [Compound 159], the “Activity Range” value is “E (E denotes an efficacy from at least 4.5)”.
